From PMC5986654, “Combined HAT/EZH2 modulation leads to cancer-selective cell death” (Oncotarget, 2018) come the findings set out here.

For assay [1], the system named is NB4 cells. Description: NB4 leukemia xenograft, human CD45+ cells in bone marrow. Format: in vivo, mice. The following applies: 1 mg/kg i.p., day 16. How it is done: Xenograft studies using NB4 and U937-AML cells were performed in NOG SCID mice under specific pathogen–free conditions. Cells (0.2 × 10^6 in 100 µL) were injected intravenously (retro orbital vein). Injected mice were randomly assigned to receive intra-peritoneal MC2884 (1 mg/kg) or vehicle for two weeks (8 doses) (10 mice per group). All animal procedures were performed in accordance with protocols approved by the local Committee for Animal Experimentation and with the permission of the Italian Health Ministry (n° 626/2015). At 16 days after injection, mice were sacrificed and the femurs and spleens were collected. Bone marrow (BM) and spleen cells were analyzed by FACS. To avoid non-specific stain, cells were mixed with mouse IgG and incubated with indicated antibodies for 30’. The mixture was depleted of erythrocytes and fixed (BD Pharmingen). […] Tumor growth was monitored by weekly bioluminescence imaging (BLI) acquisitions using an IVIS 3D Imaging System (Caliper Alameda, USA). To quantify bioluminescence, the integrated fluxes of photons (photons per s) within each area of interest were determined using the Living Images Software Package 3.2 (Caliper, Alameda, USA). […] Efficacy of drug treatment was assessed as inhibition of BLI emission comparing those MC2884 treated mice group and vehicle groups.
Background: In xenograft studies the graft and the host belong to different species.

Assay [2] has as its target SIRT1 (Homo sapiens, UniProt Q96EB6). Description: SIRT1 in vitro assay. Format: biochemical. The method, then:
The HDAC1 and SIRT1 assays were performed as described previously.

SIRT1, sequence (Q96EB6 whole entry): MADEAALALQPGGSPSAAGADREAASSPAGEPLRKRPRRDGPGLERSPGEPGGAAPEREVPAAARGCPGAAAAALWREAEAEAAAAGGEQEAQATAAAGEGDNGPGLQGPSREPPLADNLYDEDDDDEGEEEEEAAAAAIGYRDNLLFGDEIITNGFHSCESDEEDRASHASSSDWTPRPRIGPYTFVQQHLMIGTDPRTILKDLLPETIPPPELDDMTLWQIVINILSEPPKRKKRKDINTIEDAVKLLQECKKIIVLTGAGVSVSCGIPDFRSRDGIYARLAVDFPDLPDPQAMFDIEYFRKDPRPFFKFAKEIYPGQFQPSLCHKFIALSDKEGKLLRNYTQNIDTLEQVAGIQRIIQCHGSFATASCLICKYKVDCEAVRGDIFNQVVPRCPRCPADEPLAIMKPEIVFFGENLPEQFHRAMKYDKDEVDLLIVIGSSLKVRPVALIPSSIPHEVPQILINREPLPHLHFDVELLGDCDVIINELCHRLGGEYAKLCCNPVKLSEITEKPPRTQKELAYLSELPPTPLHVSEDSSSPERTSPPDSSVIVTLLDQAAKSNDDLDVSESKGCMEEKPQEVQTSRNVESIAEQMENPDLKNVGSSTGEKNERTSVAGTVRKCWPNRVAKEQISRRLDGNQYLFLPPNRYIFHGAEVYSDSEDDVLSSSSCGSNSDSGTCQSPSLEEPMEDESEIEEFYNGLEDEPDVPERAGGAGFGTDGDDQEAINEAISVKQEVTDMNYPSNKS

As for `O=C1/C(=C/c2cccc(Br)c2)CN(Cc2ccccc2)C/C1=C\c1cccc(Br)c1` [MC2884], the “human CD45+ cells in the bone marrow reduced to” value in assay [1] was 17%. In assay [2], the SirT modulating action entry is “no activity”.
